# In US9115137B2, “2,3,4,5-tetrahydro-1H-pyrido[4,3-B]indole compounds and methods of use thereof” (priority 2008, dated 2015):
# Read-outs that look alike come from different tables or passages of the source.
# Tests used:
# [1] = system: rat central imidazoline I2 receptor; test: Central imidazoline I2 radioligand binding ([3H]Idazoxan); conditions: compound at 1 μM; Wistar Rat cerebral cortex
# Procedure: To evaluate in radioligand binding assays the activity of compounds of the invention, rat central imidazoline I2 receptor obtained from Wistar Rat cerebral cortex (Brown, C. M. et al., Br. J. Pharmacol. 99:803, 1990) in a modified Tris-HCl buffer (50 mM Tris-HCl buffer, pH 7.4, 0.5 mM EDTA) was used. Compounds of the invention were incubated with 2 nM [^3H]Idazoxan for 30 minutes at 25° C. Non-specific binding was estimated in the presence of 1 μM Idazoxan. Receptor proteins were filtered and washed, the filters were then counted to determine [^3H]Idazoxan specifically bound. Compounds were screened at 1 μM or lower, using 1% DMSO as vehicle. Compounds of the invention were tested in this biochemical assay and percent inhibition of specific binding was determined. Biochemical assay results are presented as the percent inhibition of specific binding in Table 5.
# [2] = molecular target: T1, human recombinant serotonin (5-Hydroxytryptamine) 5-HT2A receptor (Homo sapiens, UniProt P28223); test: Serotonin 5-HT2A radioligand binding ([3H]Ketanserin); conditions: read-out: Serotonin (1 μM) 5-HT2A, percent inhibition of specific binding
# T1 construct: expressed in transfected cells; host or cells: CHO-K1 cells
# T1 sequence (P28223 whole entry): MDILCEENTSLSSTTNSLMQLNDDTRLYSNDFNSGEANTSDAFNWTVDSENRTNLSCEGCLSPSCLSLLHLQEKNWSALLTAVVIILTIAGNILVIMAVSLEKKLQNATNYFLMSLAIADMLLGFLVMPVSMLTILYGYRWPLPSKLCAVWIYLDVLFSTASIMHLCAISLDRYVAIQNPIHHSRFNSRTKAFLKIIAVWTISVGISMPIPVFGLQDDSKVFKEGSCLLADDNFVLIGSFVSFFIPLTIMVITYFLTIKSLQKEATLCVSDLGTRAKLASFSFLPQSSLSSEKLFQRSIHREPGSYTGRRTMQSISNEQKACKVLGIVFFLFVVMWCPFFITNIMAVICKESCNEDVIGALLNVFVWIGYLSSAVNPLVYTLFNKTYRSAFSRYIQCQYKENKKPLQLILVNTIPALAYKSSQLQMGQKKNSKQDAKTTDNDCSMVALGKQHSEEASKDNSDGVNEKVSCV
# Procedure: To evaluate in radioligand binding assays the activity of compounds of the invention, human recombinant serotonin (5-Hydroxytryptamine) 5-HT2A receptor expressed in Chinese hamster ovary (CHO-K1) cells (Bonhaus, D. W. et al. Br. J. Pharmacol. 115:622, 1995; Saucier, C. and Albert, P. R., J. Neurochem. 68:1998, 1997) in a 50 mM Tris-HCl buffer, pH 7.4, was used. Compounds of the invention were incubated with 0.5 nM [^3H]Ketanserin for 60 minutes at 25° C. Non-specific binding was estimated in the presence of 1 μM Mianserin. Receptor proteins were filtered and washed, the filters were then counted to determine [^3H] Ketanserin specifically bound. Compounds were screened at 1 μM or lower, using 1% DMSO as vehicle. Biochemical assay results are presented as the percent inhibition of specific binding in Table 7.
Compound,"Imidazoline I2 Central (1 μM), percent inhibition of specific binding [1]",also measured
"CCOC(=O)CCn1c2c(c3cc(Cl)ccc31)CN(C)CC2 [CD17, ethyl 3-(8-chloro-1,2,3,4-tetrahydro-2-methylpyrido[4,3-b]indol-5-yl)propanoate]",62%,–
"CN1CCc2c(c3cc(Cl)ccc3n2CC(=O)O)C1 [CD46, 2-(8-chloro-1,2,3,4-tetrahydro-2-methylpyrido[4,3-b]indol-5-yl)acetic acid]",28%,–
"Cc1ccc2c(c1)c1c(n2CCC(=O)O)CCN(C)C1 [CD47, 3-(1,2,3,4-tetrahydro-2,8-dimethylpyrido[4,3-b]indol-5-yl)propanoic acid]",3%,–
"CN1CCc2c(c3cc(Cl)ccc3n2CCC(=O)O)C1 [CD55, 3-(8-chloro-1,2,3,4-tetrahydro-2-methylpyrido[4,3-b]indol-5-yl)propanoic acid]",3%,–
"CCOC(=O)Cn1c2c(c3cc(C)ccc31)CN(C)CC2 [CD57, ethyl 2-(1,2,3,4-tetrahydro-2,8-dimethylpyrido[4,3-b]indol-5-yl)acetate]",–,"inhibition at 1 µM ([2]; compound at 1 μM, CHO-K1 cells): 92%"
"Cc1ccc2c(c1)c1c(n2CC(=O)O)CCN(C)C1 [CD58, 2-(1,2,3,4-tetrahydro-2,8-dimethylpyrido[4,3-b]indol-5-yl)acetic acid]",3%,–
"Cc1ccc2c(c1)c1c(n2CCN)CCN(C)C1 [CD62, 2-(1,2,3,4-tetrahydro-2,8-dimethylpyrido[4,3-b]indol-5-yl)ethanamine]",13%,–
"CN1CCc2c(c3cc(Cl)ccc3n2CCCO)C1 [CD87, 3-(8-chloro-2-methyl-3,4-dihydro-1H-pyrido[4,3-b]indol-5(2H)-yl)propan-1-ol]",–,"inhibition at 1 µM ([2]; compound at 1 μM, CHO-K1 cells): 66%"
"CN1CCc2c(c3cc(Cl)ccc3n2CCBr)C1 [CD88, 5-(2-bromoethyl)-8-chloro-2-methyl-2,3,4,5-tetrahydro-1H-pyrido[4,3-b]indole]",–,inhibition at 1 µM [2]: 98%
"CN1CCc2c(c3cc(Cl)ccc3n2CCO)C1 [CD89, 2-(8-chloro-2-methyl-3,4-dihydro-1H-pyrido[4,3-b]indol-5(2H)-yl)ethanol]",–,"inhibition at 1 µM ([2]; compound at 1 μM, CHO-K1 cells): 70%"
"Cc1ccc2c(c1)c1c(n2CCO)CCN(C)C1 [CD90, 2-(2,8-dimethyl-3,4-dihydro-1H-pyrido[4,3-b]indol-5(2H)-yl)ethanol]",–,"inhibition at 1 µM ([2]; compound at 1 μM, CHO-K1 cells): 58%"
"Cc1ccc2c(c1)c1c(n2CCBr)CCN(C)C1 [CD91, 5-(2-bromoethyl)-2,8-dimethyl-2,3,4,5-tetrahydro-1H-pyrido[4,3-b]indole]",–,"inhibition at 1 µM ([2]; compound at 1 μM, CHO-K1 cells): 96%"
"CCOC(=O)Cn1c2c(c3cc(Cl)ccc31)CN(C)CC2 [Compound 10, ethyl 2-(8-chloro-1,2,3,4-tetrahydro-2-methylpyrido[4,3-b]indol-5-yl)acetate]",25%,–
"CC(C)OC(=O)Cn1c2c(c3cc(Cl)ccc31)CN(C)CC2 [Compound 11, isopropyl 2-(8-chloro-1,2,3,4-tetrahydro-2-methylpyrido[4,3-b]indol-5-yl)acetate]",5%,–
"CN1CCc2c(c3cc(Cl)ccc3n2CC(=O)OCc2ccccc2)C1 [Compound 13, benzyl 2-(8-chloro-1,2,3,4-tetrahydro-2-methylpyrido[4,3-b]indol-5-yl)acetate]",16%,–
CN1CCc2c(c3cc(Cl)ccc3n2CC(=O)OC2CCCC2)C1 [Compound 15],23%,–
"CCNC(=O)Cn1c2c(c3cc(C)ccc31)CN(C)CC2 [Compound 22, N-ethyl-2-(1,2,3,4-tetrahydro-2,8-dimethylpyrido[4,3-b]indol-5-yl)acetamide]",51%,–
"Cc1ccc2c(c1)c1c(n2CC(=O)NC(C)C)CCN(C)C1 [Compound 23, 2-(1,2,3,4-tetrahydro-2,8-dimethylpyrido[4,3-b]indol-5-yl)-N-isopropylacetamide]",1%,–

Compound,"Imidazoline I2 Central (1 μM), percent inhibition of specific binding [1]",also measured
"Cc1ccc2c(c1)c1c(n2CC(=O)NCc2ccccc2)CCN(C)C1 [Compound 25, N-benzyl-2-(1,2,3,4-tetrahydro-2,8-dimethylpyrido[4,3-b]indol-5-yl)acetamide]",18%,–
"CN1CCc2c(c3cc(Cl)ccc3n2CC(=O)NC2CCCC2)C1 [Compound 27, 2-(8-chloro-1,2,3,4-tetrahydro-2-methylpyrido[4,3-b]indol-5-yl)-N-cyclopentylacetamide]",8%,–
"Cc1ccc2c(c1)c1c(n2CCC(=O)NCC2CCCCC2)CCN(C)C1 [Compound 30, N-(cyclohexylmethyl)-3-(1,2,3,4-tetrahydro-2,8-dimethylpyrido[4,3-b]indol-5-yl)propanamide]",61%,–
"CN1CCc2c(c3cc(Cl)ccc3n2CCC(=O)NC2CCCC2)C1 [Compound 31, 3-(8-chloro-1,2,3,4-tetrahydro-2-methylpyrido[4,3-b]indol-5-yl)-N-cyclopentylpropanamide]",33%,–
"CN1CCc2c(c3cc(Cl)ccc3n2CC(N)=O)C1 [Compound 45, 2-(8-chloro-1,2,3,4-tetrahydro-2-methylpyrido[4,3-b]indol-5-yl)acetamide]",24%,–
"Cc1ccc2c(c1)c1c(n2CCC(=O)Nc2ccc(F)cc2)CCN(C)C1 [Compound 47, N-(4-fluorophenyl)-3-(1,2,3,4-tetrahydro-2,8-dimethylpyrido[4,3-b]indol-5-yl)propanamide]",47%,–
"CN1CCc2c(c3cc(Cl)ccc3n2CC(=O)N(C)C)C1 [Compound 48, 2-(8-chloro-1,2,3,4-tetrahydro-2-methylpyrido[4,3-b]indol-5-yl)-N,N-dimethylacetamide]",18%,–
"CN1CCc2c(c3cc(Cl)ccc3n2CCC(=O)N(C)C)C1 [Compound 49, 3-(8-chloro-1,2,3,4-tetrahydro-2-methylpyrido[4,3-b]indol-5-yl)-N,N-dimethylpropanamide]",58%,–
"Cc1ccc2c(c1)c1c(n2CCNC(=O)c2ccncc2)CCN(C)C1 [Compound 50, N-(2-(1,2,3,4-tetrahydro-2,8-dimethylpyrido[4,3-b]indol-5-yl)ethyl)isonicotinamide]",24%,–
"Cc1ccc2c(c1)c1c(n2CC(=O)Nc2ccc(F)cc2)CCN(C)C1 [Compound 51, N-(4-fluorophenyl)-2-(1,2,3,4-tetrahydro-2,8-dimethylpyrido[4,3-b]indol-5-yl)acetamide]",12%,–
"CCCCOC(=O)Cn1c2c(c3cc(Cl)ccc31)CN(C)CC2 [Compound 52, butyl 2-(8-chloro-1,2,3,4-tetrahydro-2-methylpyrido[4,3-b]indol-5-yl)acetate]",14%,–
"Cc1ccc2c(c1)c1c(n2CCC(=O)NCc2ccccc2)CCN(C)C1 [Compound 59, N-benzyl-3-(1,2,3,4-tetrahydro-2,8-dimethylpyrido[4,3-b]indol-5-yl)propanamide]",64%,–
"CN1CCc2c(c3cc(Cl)ccc3n2CC(=O)NC2CCCCC2)C1 [Compound 60, 2-(8-chloro-1,2,3,4-tetrahydro-2-methylpyrido[4,3-b]indol-5-yl)-N-cyclohexylacetamide]",6%,–
"Cc1ccc2c(c1)c1c(n2CCNC(=O)C(C)C)CCN(C)C1 [Compound 61, N-(2-(1,2,3,4-tetrahydro-2,8-dimethylpyrido[4,3-b]indol-5-yl)ethyl)isobutyramide]",40%,–
"Cc1ccc2c(c1)c1c(n2CCNC(=O)C2CCCCC2)CCN(C)C1 [Compound 62, N-(2-(1,2,3,4-tetrahydro-2,8-dimethylpyrido[4,3-b]indol-5-yl)ethyl)cyclohexanecarboxamide]",42%,–
"Cc1ccc2c(c1)c1c(n2CCNC(=O)c2ccc(F)cc2Cl)CCN(C)C1 [Compound 63, 2-chloro-4-fluoro-N-(2-(1,2,3,4-tetrahydro-2,8-dimethylpyrido[4,3-b]indol-5-yl)ethyl)benzamide]",41%,–
"Cc1ccc2c(c1)c1c(n2CC(N)=O)CCN(C)C1 [Compound 64, 2-(1,2,3,4-tetrahydro-2,8-dimethylpyrido[4,3-b]indol-5-yl)acetamide]",16%,–
"Cc1ccc2c(c1)c1c(n2CCNC(=O)C2CCNCC2)CCN(C)C1 [Compound 65, N-(2-(1,2,3,4-tetrahydro-2,8-dimethylpyrido[4,3-b]indol-5-yl)ethyl)piperidine-4-carboxamide]",23%,–
